BindingDB's records for doi:10.1016/j.bioorg.2015.06.003 (Gwangju Institute of Science and Technology, 2015)

These compounds were tested against T1, P2X purinoceptor 7 (Homo sapiens, UniProt Q99572) (assay: Ethidium Bromide Uptake Assay). Settings: pH 7.4.
T1 sequence (Q99572 whole entry): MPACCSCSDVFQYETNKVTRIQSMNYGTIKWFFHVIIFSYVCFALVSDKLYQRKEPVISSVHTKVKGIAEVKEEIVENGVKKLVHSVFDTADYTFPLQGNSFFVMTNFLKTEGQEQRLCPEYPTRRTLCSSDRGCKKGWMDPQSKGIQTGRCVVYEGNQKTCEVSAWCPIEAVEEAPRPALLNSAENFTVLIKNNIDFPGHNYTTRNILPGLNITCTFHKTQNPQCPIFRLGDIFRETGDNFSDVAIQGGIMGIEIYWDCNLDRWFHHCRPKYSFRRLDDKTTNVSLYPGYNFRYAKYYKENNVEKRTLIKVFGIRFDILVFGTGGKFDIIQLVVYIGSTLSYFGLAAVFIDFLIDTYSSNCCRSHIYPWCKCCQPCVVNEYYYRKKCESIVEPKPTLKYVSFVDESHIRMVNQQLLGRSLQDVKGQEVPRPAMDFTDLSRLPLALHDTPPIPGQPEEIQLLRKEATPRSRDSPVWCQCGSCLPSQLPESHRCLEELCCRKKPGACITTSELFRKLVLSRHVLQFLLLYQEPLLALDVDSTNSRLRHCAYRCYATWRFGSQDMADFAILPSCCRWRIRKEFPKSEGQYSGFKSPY
Description: hP2X7-expressing HEK 293 cells were re-suspended at 2.5 × 10^6 cells/mL in assay buffer composed of 10 mM HEPES, 5 mM N-methyl-D-glutamine, 5.6 mM KCl, 10 mM D-glucose, and 0.5 mM CaCl2 (pH 7.4) supplemented with either 280 mM sucrose or 140 mM NaCl, and an 80 µL aliquot was added to each well of a 96-well plate. To each compound were added and KN-62 as the positive control, followed by the hP2X7R agonist benzoyl ATP (BzATP). The plates were incubated at 37 °C for 2 h and the cellular accumulation of ethidium ion was determined by measuring fluorescence (excitation = 530 nm; emission = 590 nm).

First: CC12CC3CC(C)(C1)CC(C(=O)NNc1ncnc4nc[nH]c14)(C3)C2 [3,5-Dimethyl-N'-(7H-purin-6-yl)adamantane-1-carbohydrazide (9n)]
Second: CC12CC3CC(C)(C1)CC(C(=O)NNc1nc(Cl)nc4nc[nH]c14)(C3)C2 [N'-(2-Chloro-7H-purin-6-yl)-3,5-dimethyladamantane-1-carbohydrazide (9o)]
The IC50 of the first is 16-fold higher: 2880 nM for the first, 176 nM for the second. The second is the more potent here.

First: CC12CC3CC(C)(C1)CC(C(=O)NNc1ncnc4ccccc14)(C3)C2 [3,5-Dimethyl-N'-(quinazolin-4-yl)adamantane-1-carbohydrazide (9k)]
Second: CC12CC3CC(C)(C1)CC(C(=O)NNc1ccnc4ccccc14)(C3)C2 [3,5-Dimethyl-N'-(quinolin-4-yl)adamantane-1-carbohydrazide (9g)]
The IC50 of the first is 7.6-fold higher: 5500 nM for the first, 726 nM for the second.

CC12CC3CC(C)(C1)CC(C(=O)NNc1ccc4ccccc4n1)(C3)C2 [3,5-Dimethyl-N'-(quinolin-2-yl)adamantane-1-carbohydrazide (9i)] and CC12CC3CC(C)(C1)CC(C(=O)NNc1cnc4ccccc4c1)(C3)C2 [3,5-Dimethyl-N'-(quinolin-3-yl)adamantane-1-carbohydrazide (9h)] are within 1.5-fold of each other in IC50: 2900 nM for the first, 3700 nM for the second.

Compound CC12CC3CC(C)(C1)CC(C(=O)NNc1ccnc4c(Cl)cccc14)(C3)C2 [N'-(8-Chloroquinoline-4-yl)-3,5-dimethyladamantanehydrazide (9j)] has an IC50 of 1100 nM.
